Laboratory results as given in ChEMBL document CHEMBL1144649, “2-cyanoaminopyrimidines as a class of antitumor agents that promote tubulin polymerization” (Bioorg Med Chem Lett, 2007).
pIC50: −log10 of the molar value. The source made the active and inactive calls. The calls are words filed in the database; no cut-off is given here.

Key:
COLO 205 = assay: Cytotoxicity against COLO205 cells; assay type: functional, cell-based; conditions: Homo sapiens
KB [1] = assay: Ratio of IC50 for KB8.5 cells to IC50 for KB cells; assay type: functional, Homo sapiens
[2] = Stability in nude mouse microsomes after 30 mins; assay type: ADME, Microsome; conditions: read-out: Stability
[3] = Ratio of IC50 for KB V1 cells to IC50 for KB cells
KB [4] = assay: Antiproliferative activity against KB cells; assay type: functional, cell-based; conditions: Homo sapiens
[5] = Solubility in water at pH 7.4; assay type: physicochemical
Tubulin (Homo sapiens) [6] = biological target: T1, Tubulin (Homo sapiens) (UniProt P68371+Q9H4B7+P0DPH7+P68366+Q13509+Q71U36+P04350+Q3ZCM7+P07437+P68363+Q9BQE3+Q6PEY2+Q13885+Q9BVA1+Q9BUF5); assay: Stimulation of tubulin polymerization; assay type: protein-complex assay
[7] = Antiproliferative activity against KBV1cells; assay type: functional, cell-based; conditions: Homo sapiens, KB-V1
Tubulin (Homo sapiens) [8] = biological target: T1, Tubulin (Homo sapiens); assay: Stimulation of MAP-rich tubulin polymerization; assay type: protein-complex assay
[9] = Antiproliferative activity against KB8.5 cells; assay type: functional, cell-based; conditions: Homo sapiens

| Structure (SMILES) | pIC50 (COLO 205) | Ratio IC50 (KB [1]) | pIC50 [7] | pIC50 [9] | also measured |
| --- | --- | --- | --- | --- | --- |
| CN(C)CCOc1cc(F)c(-c2c(Cl)nc(N(C)C#N)nc2NCC(F)(F)F)c(F)c1 | 6.27 |  |  |  |  |
| CN(C)CCCCOc1cc(F)c(-c2c(Cl)nc(N(C)C#N)nc2NCC(F)(F)F)c(F)c1 | 6.64 |  |  |  |  |
| C[C@H](Nc1nc(N(C)C#N)nc(Cl)c1-c1c(F)cc(OCCCN(C)C)cc1F)C(F)(F)F | 7.44 | 2.5 | 7.09 | 7.23 | remaining at 0.5 h [2]: 92%; Ratio IC50 [3]: 3.5; pIC50 (KB [4]): 7.62; solubility [5]: > 100 µg/mL; Activity (Tubulin (Homo sapiens) [6]): Active; Activity (Tubulin (Homo sapiens) [8]): Active |
| CC(=O)O[C@H]1C(=O)[C@@]2(C)[C@H]([C@H](OC(=O)c3ccccc3)[C@]3(O)C[C@H](OC(=O)[C@H](O)[C@@H](NC(=O)c4ccccc4)c4ccccc4)C(C)=C1C3(C)C)[C@]1(OC(C)=O)CO[C@@H]1C[C@@H]2O [PACLITAXEL] |  |  | 5.70 |  |  |
| CN(C)CCCOc1cc(F)c(-c2c(Cl)nc(N(C)C#N)nc2NCC(F)(F)F)c(F)c1 | 7.28 |  |  |  |  |
| CCN(C#N)c1nc(Cl)c(-c2c(F)cc(F)cc2F)c(NCC(F)(F)F)n1 | 6.52 |  |  |  |  |
| C=CCN(C#N)c1nc(Cl)c(-c2c(F)cc(F)cc2F)c(NCC(F)(F)F)n1 | 6.32 |  |  |  |  |
| CNCCCOc1cc(F)c(-c2c(Cl)nc3ncnn3c2N[C@@H](C)C(F)(F)F)c(F)c1.Cl |  | 2.9 |  | 7.17 |  |
| CN(C#N)c1nc(Cl)c(-c2c(F)cc(F)cc2F)c(NCC(F)(F)F)n1 | 6.67 |  |  |  |  |
| CC[C@]1(O)C[C@H]2CN(CCc3c([nH]c4ccccc34)[C@@](C(=O)OC)(c3cc4c(cc3OC)N(C=O)[C@H]3[C@@](O)(C(=O)OC)[C@H](OC(C)=O)[C@]5(CC)C=CCN6CC[C@]43[C@@H]65)C2)C1 [VINCRISTINE] |  | 26 | 5.69 | 7.24 | Ratio IC50 [3]: 925 |
